Assay results taken from US20190330167A1, “ACTIVATORS OF HIV LATENCY” (priority 2016, published 2019).

Tests used:
Format in all cases: cell-based
[1] = tested on: HIV-1 long terminal repeat (LTR)-driven luciferase reporter gene in FlipIn.FM HEK293 cells; assay: cells
Protocol: FIG. 44. […] The FlipIn.FM model of HIV-1 latency was treated with JQ1 (+) and DP#14 (Compound 7) alone at 10 μM and in combination, and the HIV-1 gene expression measured 48 hrs post treatment. Error bars represent standard deviation of n=3 experiments. OPTI represents media alone, without DP#14.
FIG. 46. […] The FlipIn.FM model of HIV-1 latency was treated with PFI-1 and DP#14 alone at 10 μM and in combination, and the HIV-1 gene expression measured 48 hrs post treatment. Error bars represent standard deviation of n=3 experiments. OPTI represents media alone, without DP#14.
Explicitly, HEK293 derived FlipIn-FM and FlipIn-RV dual reporter cells each include a single stable HIV-1 long terminal repeat (LTR)-driven luciferase reporter genes, with a second complimentary non-HIV (off-target) luciferase reporter. These cell lines model post integration latency and read-through transcription by expressing a low level of HIV-1 Tat protein via a native Internal Ribosome Entry Site (IRES) found within Tat, from a chimeric cellular-tat gene cassette. FlipIn-FM and FlipIn-RV clones were chosen for low basal levels of LTR activity and high responsiveness to Tat as well as many Latency Reversing Agents (LRAs).
The dual reporter cell lines contain three stably integrated constructs that together allow for detection of novel LRAs, capable of potent and specific HIV reactivation. The FlipIn.FM line contains a proviral LTR-driven nef/CBR reporter fusion gene, allowing for detection of viral gene expression. A second CMV-driven CBG luciferase reporter allows for detection of off target drug effects, including non-specific activation and drug toxicity. The third construct contains the first coding exon of HIV-1 tat, within human Growth Hormone (hGH) as a chimeric gene, expressing HIV-1 Tat protein from an IRES mechanism that underlies the tat exon. This construct models read-through transcription and the low level of Tat protein expression that occurs during post integration latency. The counter screening reverse cell line, FlipIn.RV, contains the same three components with the Click Beetle Luciferase genes in the opposite orientation (LTR-CBG and CMV-CBR) for counter screening.
Compounds were evaluated in an 11-point titration using normal CMV-CBG/LTR-CBR reporter cell line and an 11 point reverse CMV-CBR/LTR-CBG reporter cell line.
The FlipIn cell lines were therefore designed with a dual purpose, to detect novel compounds that reactivate HIV-1 and to also screen out compounds that behaved in a largely non-specific manner. To achieve the latter, the cell lines contain an “off target” reporter gene construct, driven by the unrelated CMV-IE promoter, that allows for the detection of drug mediated off target effects including global gene activation as well as possible toxicity.
The HIV-LTR driven latent reporter gene identifies the HIV-specific activation, and the term “global reporter” is interchangeable with “off target reporter” and refers to the unrelated CMV-IE promoter driven reporter gene, which is used as a surrogate for global gene activation. […] The highest concentration tested here was 40 μM.

[2] = tested on: HIV-1 gene expression in J.Lat10.6 latently infected T-cell line; assay: cells
Protocol: The J.Lat10.6 latently infected T-cell line was treated with 4 compounds of the present invention, DP#6 (Compound 41), DP#14 (Compound 7), DP#18 (Compound 65), and DP#19 (Compound 73) and reactivated for 48 hrs. HIV-1 reactivation was measured by flowcytometry for GFP expression. Error bars represent standard deviation of n=3 experiments.
FIG. 45. […] The J.Lat10.6 model of HIV-1 latency was treated with JQ1 (+) and DP#14 (Compound 7) alone at 10 μM and in combination, and the HIV-1 gene expression measured 48 hrs post treatment. Error bars represent standard deviation of n=3 experiments. OPTI represents media alone, without DP#14.
FIG. 47. […] The J.Lat10.6 model of HIV-1 latency was treated with PFI-1 and DP#14 alone at 10 μM and in combination, and the HIV-1 gene expression measured 48 hrs post treatment. Error bars represent standard deviation of n=3 experiments. OPTI represents media alone, without DP#14.
Compounds were also evaluated in a dose ranging titration with HIV latently infected cell lines (J.Lat 6.3 and 10.6). The specificity of the selected compounds in these cell line models, were measured by inserting a CMV-DS.Red reporter into these cells to co-ordinately measure HIV specific LTR-Green fluorescent protein and non-specific DS.Red expression during FACS analysis.
The J.Lat model of HIV-1 latency is a well-established model used widely and is described in detail in the following paper:
HIV reproducibly establishes a latent infection after acute infection of T cells in vitro, Eric Verdin et al, The EMBO Journal Vol. 22 No. 8 pp 1868-1877, 2003

J.Lat10.6 T-cell line = assay: Dose dependent toxicity in the J.Lat model; details: dosed as high as 40 μM

**Q.** `O=C(CCCOc1ccccc1)Nc1ncc(Br)s1` [Compound 7] was tested. Which “fold change in HIV-1 gene expression over the unstimulated baseline” value ([1]; FlipIn.FM model, alone at 10 μM and in combination, 48 hrs post treatment) did it give?
**A.** Its value is 4.2 fold.

**Q.** And the EC50 ([1]; Human immunodeficiency virus 1, HEK293, HIV-LTR driven latent reporter, 11-point, 2-fold dilution series, highest concentration 40 μM, read-out: Latent reporter Av EC50)?
**A.** Its EC50 is 1.64 µM.

**Q.** What about the IC50 ([2]; Human immunodeficiency virus 1, J-Lat 10.6, 48 h, read-out: IC50 for reactivation of HIV-1 gene expression) of the same compound?
**A.** The IC50 was about 4.5 µM.

**Q.** And the “percent of the cells treated with reactivated HIV-1 gene expression” value ([2]; J.Lat10.6 model, alone at 10 μM and in combination, 48 hrs post treatment)?
**A.** Its value is 2.4%.

**Q.** What about the dose dependent toxicity (J.Lat10.6 T-cell line) of the same compound?
**A.** The dose dependent toxicity was “no such toxicity”.
